The subject of the experiment is B6C3F1 mice, ip Sarcoma M5076, median survival T/C. Nature of the experiment: NCI In Vivo Anticancer Drug Screen. Data for tumor model Sarcoma M5076 (intraperitoneal) in B6C3F1 mice. As to conditions: endpoint: median survival time, higher = longer survival. The essentials: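 Tumour cells were transplanted into mice, compound or vehicle was given, survival of both groups was followed, and the treated figure was expressed over the control figure.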

Where [1] appears, read: dose: 50.0 mg/kg/injection, schedule: Q04DX004 (ip), vehicle: water.
Where [2] appears, read: dose: 25.0 mg/kg/injection, schedule: Q04DX004 (ip), vehicle: saline with Tween-80.
The mark [3] stands for this setting: dose: 50.0 mg/kg/injection, schedule: Q04DX004 (ip), vehicle: saline with Tween-80.
[4] abbreviates: dose: 100.0 mg/kg/injection, schedule: Q04DX004 (ip), vehicle: saline with Tween-80.
Setting [5] is: dose: 200.0 mg/kg/injection, schedule: Q04DX004 (ip), vehicle: saline with Tween-80.
The mark [6] stands for this setting: dose: 2.0 mg/kg/injection, schedule: Q04DX004 (ip), vehicle: saline with Tween-80.
[7] abbreviates: dose: 37.5 mg/kg/injection, schedule: Q04DX004 (ip), vehicle: saline with Tween-80.
[8] abbreviates: dose: 75.0 mg/kg/injection, schedule: Q04DX004 (ip), vehicle: saline with Tween-80.
Where [9] appears, read: dose: 150.0 mg/kg/injection, schedule: Q04DX004 (ip), vehicle: saline with Tween-80.
Setting [10] is: dose: 400.0 mg/kg/injection, schedule: Q04DX004 (ip), vehicle: saline with Tween-80.

Several values for one entry are separate records, joined by “and”; a condition that tells them apart may be missing. Equal values may be shown once. Inconclusive results and toxic doses are left out.

With `COc1ccc2c(c1)-c1nn(CCCN(C)C)c3ccc([N+](=O)[O-])c(c13)N2`, the T/C runs as follows: (dose: 6.25 mg/kg/injection, schedule: Q04DX004 (ip), vehicle: water) 118 % of control; (dose: 12.5 mg/kg/injection, schedule: Q04DX004 (ip), vehicle: water) 120 % of control; under setting [1], 156 % of control and 170 % of control; (dose: 100.0 mg/kg/injection, schedule: Q04DX004 (ip), vehicle: water) 96 % of control.
Regarding `COc1ccc(O)cc1`, the T/C is 102 % of control under setting [2], 98 % of control under setting [3], 105 % of control under setting [4] and 113 % of control under setting [5].
`O=C(O)CCCc1ccc(N(CCCl)CCCl)cc1`: the T/C by setting is: under setting [6], 108 % of control; (dose: 4.0 mg/kg/injection, schedule: Q04DX004 (ip), vehicle: saline with Tween-80) 114 % of control and 123 % of control; (dose: 8.0 mg/kg/injection, schedule: Q04DX004 (ip), vehicle: saline with Tween-80) 118 % of control.
For the compound `COc1cc([C@@H]2c3cc4c(cc3[C@H](O)[C@H]3COC(=O)[C@H]23)OCO4)cc(OC)c1OC`, the T/C by setting is: under setting [6], 117 % of control; (dose: 5.8 mg/kg/injection, schedule: Q04DX004 (ip), vehicle: saline with Tween-80) 117 % of control; (dose: 15.98 mg/kg/injection, schedule: Q04DX004 (ip), vehicle: saline with Tween-80) 154 % of control; (dose: 44.4 mg/kg/injection, schedule: Q04DX004 (ip), vehicle: saline with Tween-80) 151 % of control.
In the case of `CC1(C)N=C(N)N=C(N)N1c1ccc(CCCCc2ccc(S(=O)(=O)F)cc2Cl)c(Cl)c1`, the T/C reads like this: (dose: 15.0 mg/kg/injection, schedule: Q04DX004 (ip), vehicle: Klucel (hydroxypropylcellulose) (HPC)) 204 % of control; (dose: 30.0 mg/kg/injection, schedule: Q04DX004 (ip), vehicle: Klucel (hydroxypropylcellulose) (HPC)) 186 % of control; (dose: 60.0 mg/kg/injection, schedule: Q04DX004 (ip), vehicle: Klucel (hydroxypropylcellulose) (HPC)) 270 % of control; (dose: 120.0 mg/kg/injection, schedule: Q04DX004 (ip), vehicle: Klucel (hydroxypropylcellulose) (HPC)) 270 % of control; (dose: 240.0 mg/kg/injection, schedule: Q04DX004 (ip), vehicle: Klucel (hydroxypropylcellulose) (HPC)) 270 % of control.
As for `CC(=O)C1C(=O)C(=O)N(c2cc(C)ccc2O)C1=O` (configuration not stated), the T/C by setting is: (dose: 50.0 mg/kg/injection, schedule: Q04DX004 (ip), vehicle: Klucel + Tween-80) 106 % of control; (dose: 100.0 mg/kg/injection, schedule: Q04DX004 (ip), vehicle: Klucel + Tween-80) 100 % of control.
In the case of `C[C@]12C=CC(=O)C=C1CC[C@@H]1[C@@H]2C(=O)C[C@@]2(C)[C@H]1CC[C@]2(O)C(=O)CO`, the T/C is 105 % of control and 123 % of control (dose: 50.0 mg/kg/injection, schedule: Q04DX004 (ip), vehicle: Klucel (hydroxypropylcellulose) (HPC)); 118 % of control (dose: 100.0 mg/kg/injection, schedule: Q04DX004 (ip), vehicle: Klucel (hydroxypropylcellulose) (HPC)); 116 % of control (dose: 200.0 mg/kg/injection, schedule: Q04DX004 (ip), vehicle: Klucel (hydroxypropylcellulose) (HPC)); 94 % of control (dose: 400.0 mg/kg/injection, schedule: Q04DX004 (ip), vehicle: Klucel (hydroxypropylcellulose) (HPC)).
Consider `COc1ccc2c(n1)Sc1nc3ccccc3nc1N2`, for which the T/C runs as follows: under setting [7], 92 % of control; under setting [8], 98 % of control; under setting [9], 87 % of control.
Turning to `OCCC(N1CCOCC1)C(O)(c1ccccc1)c1ccccc1` (configuration not stated), the T/C is, setting by setting: under setting [7], 103 % of control; under setting [8], 106 % of control; under setting [9], 107 % of control; (dose: 300.0 mg/kg/injection, schedule: Q04DX004 (ip), vehicle: saline with Tween-80) 100 % of control; (dose: 600.0 mg/kg/injection, schedule: Q04DX004 (ip), vehicle: saline with Tween-80) 93 % of control.
Turning to `O=S(=O)(O)SCCNCCCCC1CCCCC1`, the T/C is 100 % of control (dose: 3.75 mg/kg/injection, schedule: Q04DX004 (ip), vehicle: saline with Tween-80); 99 % of control (dose: 7.5 mg/kg/injection, schedule: Q04DX004 (ip), vehicle: saline with Tween-80); 101 % of control (dose: 15.0 mg/kg/injection, schedule: Q04DX004 (ip), vehicle: saline with Tween-80).
For the compound `Nc1ccn([C@@H]2C=C(CO)[C@@H](O)[C@H]2O)c(=O)n1`, the T/C by setting is: (dose: 0.13 mg/kg/injection, schedule: Q01DX013 (ip), vehicle: saline) 96 % of control; (dose: 0.25 mg/kg/injection, schedule: Q01DX013 (ip), vehicle: saline) 104 % of control; (dose: 0.5 mg/kg/injection, schedule: Q01DX013 (ip), vehicle: saline) 105 % of control.
Turning to `N=C(N)SCc1cccc2c(=O)cc(-c3ccccc3)oc12`, the T/C is 98 % of control (dose: 50.0 mg/kg/injection, schedule: Q04DX004 (ip), vehicle: saline); 114 % of control (dose: 50.0 mg/kg/injection, schedule: Q04DX004 (ip), vehicle: suspension in saline); 102 % of control (dose: 100.0 mg/kg/injection, schedule: Q04DX004 (ip), vehicle: saline); 104 % of control (dose: 100.0 mg/kg/injection, schedule: Q04DX004 (ip), vehicle: suspension in saline); 105 % of control and 112 % of control (dose: 144.0 mg/kg/injection, schedule: Q04DX004 (ip), vehicle: suspension in saline); 106 % of control (dose: 200.0 mg/kg/injection, schedule: Q04DX004 (ip), vehicle: saline). For the same compound, the T/C runs as follows: (dose: 200.0 mg/kg/injection, schedule: Q04DX004 (ip), vehicle: suspension in saline) 104 % of control; (dose: 240.0 mg/kg/injection, schedule: Q04DX004 (ip), vehicle: suspension in saline) 101 % of control and 109 % of control; (dose: 400.0 mg/kg/injection, schedule: Q04DX004 (ip), vehicle: saline) 102 % of control; (dose: 666.67 mg/kg/injection, schedule: Q04DX004 (ip), vehicle: suspension in saline) 101 % of control; (dose: 1111.11 mg/kg/injection, schedule: Q04DX004 (ip), vehicle: suspension in saline) 100 % of control.
Take `S=C(NCNC(=S)c1ccncc1)c1ccncc1`: the T/C was 96 % of control under setting [2]; 99 % of control under setting [3]; 92 % of control under setting [4]; 102 % of control under setting [5]; 107 % of control under setting [10].
`CC(=O)NCCSSCCCCS(=O)O`: the T/C is, setting by setting: (dose: 37.5 mg/kg/injection, schedule: Q04DX004 (ip), vehicle: saline) 99 % of control; (dose: 75.0 mg/kg/injection, schedule: Q04DX004 (ip), vehicle: saline) 98 % of control; (dose: 150.0 mg/kg/injection, schedule: Q04DX004 (ip), vehicle: saline) 100 % of control; (dose: 300.0 mg/kg/injection, schedule: Q04DX004 (ip), vehicle: saline) 97 % of control; (dose: 600.0 mg/kg/injection, schedule: Q04DX004 (ip), vehicle: saline) 104 % of control.
For the compound `COC1CCCCC1C(N)C(=O)O` (configuration not stated) (tested in a mixture with another compound), the T/C is, setting by setting: under setting [2], 100 % of control; under setting [3], 91 % of control; under setting [4], 95 % of control; under setting [5], 95 % of control; under setting [10], 93 % of control.
For `O=C1C2CC=CCC2C(=O)N1SC(Cl)(Cl)Cl` (configuration not stated), the T/C by setting is: (dose: 3.13 mg/kg/injection, schedule: Q04DX004 (ip), vehicle: saline with Tween-80) 110 % of control; (dose: 6.25 mg/kg/injection, schedule: Q04DX004 (ip), vehicle: saline with Tween-80) 120 % of control; (dose: 12.5 mg/kg/injection, schedule: Q04DX004 (ip), vehicle: saline with Tween-80) 91 % of control; under setting [2], 100 % of control.
With `COc1ccc(OC)c(Cc2cnc3nc(N)nc(N)c3c2C)c1`, the T/C by setting is: (dose: 25.0 mg/kg/injection, schedule: Q04DX004 (ip), vehicle: water) 95 % of control; under setting [1], 115 % of control.

Values taken from PubChem BioAssay AID292 (DTP/NCI, 2004).
